Activity calls are given as the source filed them. No cut-off for these calls is given here.
Key:
Type in all cases: nucleic-acid assay
[1] = test system: RNA; assay: Binding affinity to CAG repeat RNA overhang (unknown origin)
[2] = test system: RNA; assay: Binding affinity to (CAG)10 repeat RNA (unknown origin) at 2 uM by SPR analysis
[3] = test system: RNA; assay: Binding affinity to CAG repeat RNA terminal (unknown origin)
[4] = test system: RNA; assay: Binding affinity to 5' (CAG)2 repeat RNA overhang (unknown origin) by SPR analysis; conditions: dose 0.063-2 µM
[5] = test system: RNA; assay: Binding affinity to (CAG)3 repeat RNA (unknown origin) at 0.063 to 2 uM by SPR analysis; conditions: dose 0.063-2 µM
[6] = test system: RNA; assay: Binding affinity to (CAG)10 repeat RNA (unknown origin) by SPR analysis; conditions: dose 1.0 µM
[7] = test system: RNA; assay: Binding affinity to (CAG)2 repeat RNA hairpin loop (unknown origin) by SPR analysis
[8] = test system: RNA; assay: Binding affinity to (CAG)10 repeat RNA (unknown origin) at 20 uM by CSI-TOF MS analysis
[9] = test system: RNA; assay: Binding affinity to (CAG)2 repeat RNA (unknown origin) at 0.063 to 2 uM by SPR analysis; conditions: dose 0.063-2 µM
[10] = test system: RNA; assay: Binding affinity to 5' (CAG)2 repeat RNA overhang (unknown origin) at 2 uM by SPR analysis
[11] = test system: RNA; assay: Binding affinity to 5' (CAG)3 repeat RNA overhang (unknown origin) by SPR analysis; conditions: dose 0.063-2 µM
[12] = test system: RNA; assay: Binding affinity to (CAG)3 repeat RNA hairpin loop (unknown origin) by SPR analysis; conditions: dose 0.063-2 µM
[13] = test system: RNA; assay: Binding affinity to (CAG)10 repeat RNA (unknown origin) assessed as association constant by SPR analysis
[14] = test system: RNA; assay: Binding affinity to 3' (CAG) repeat RNA hairpin loop (unknown origin) at 2 uM by SPR analysis
[15] = test system: RNA; assay: Binding affinity to (CAG)10 repeat RNA internal loop (unknown origin) by SPR analysis
[16] = test system: RNA; assay: Binding affinity to 5' (CAG) repeat RNA hairpin loop (unknown origin) at 2 uM by SPR analysis
[17] = test system: RNA; assay: Binding affinity to 5' (CAG)3 repeat RNA overhang (unknown origin) at 2 uM by SPR analysis
[18] = test system: RNA; assay: Binding affinity to 3' (CAG)2 repeat RNA overhang (unknown origin) at 0.063 to 2 uM by SPR analysis; conditions: dose 0.063-2 µM
[19] = test system: RNA; assay: Binding affinity to (CAG)10 repeat RNA (unknown origin) assessed as dissociation rate constant by SPR analysis
[20] = biological target: RNA; assay: Binding affinity to (CAG)10 repeat RNA (unknown origin) assessed as dissociation constant by SPR analysis

| Activity [1] | Activity [2] | Activity [3] | Activity [4] | Activity [5] | Activity [6] | Activity [7] | Activity [8] | Activity [9] | Activity [10] | Activity [11] | Activity [12] | Ka [13] | Activity [14] | Activity [15] | Activity [16] | Activity [17] | Activity [18] | Kdiss [19] | Kd [20] | SMILES |
| --- | --- | --- | --- | --- | --- | --- | --- | --- | --- | --- | --- | --- | --- | --- | --- | --- | --- | --- | --- | --- |
| inactive | inactive | inactive | – | – | – | – | – | – | – | – | – | – | – | – | – | – | – | – | – | Cc1ccc2ccc(NC(=O)CCNCCC(=O)NCc3ccc4ccc(=O)[nH]c4n3)nc2n1 |
| – | – | – | Dose-Dependent Effect | Active | Dose-Dependent Effect | inactive | Active | Active | inactive | Dose-Dependent Effect | Dose-Dependent Effect | 0.47 10^4/M/s | Active | Active | Active | inactive | Active | 2.9 10^-2/s | 6.1 µM | Cc1ccc2ccc(NC(=O)CCN(CCCCCN(CCC(=O)NCc3ccc4ccc(=O)[nH]c4n3)CCC(=O)Nc3ccc4ccc(C)nc4n3)CCC(=O)NCc3ccc4ccc(=O)[nH]c4n3)nc2n1 |

— ChEMBL document CHEMBL5550085, “A new small molecule DoNA binding to CAG repeat RNA” (Bioorg Med Chem, 2024)
